Reference: patent US20180370927A1, “MICROBIOCIDAL OXADIAZOLE DERIVATIVES” (SYNGENTA PARTICIPATIONS AG, priority 2015, published 2018)

Experiments:
[1] = test system: Puccinia recondita f. Sp. Tritici; assay: Puccinia recondita f. sp. tritici / wheat / leaf disc curative (brown rust); assay type: in vivo; conditions: foliar, 200 ppm in the applied formulation, wheat leaf segments, curative (applied 1 day after inoculation), assessed 6 to 8 days after application, read-out: disease control compared to untreated control leaf disks
Procedure, shortened: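 Wheat cv. Kanzler leaf segments on agar were inoculated with spores, kept dark at 19° C, 75% RH, then sprayed with diluted formulated compound 1 day after inoculation (curative). Incubation continued at 19° C, 75% RH, 12 h light/12 h dark, with percent disease control versus untreated scored 6 to 8 days after application.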

[2] = test system: Puccinia recondita f. Sp. Tritici; assay: Puccinia recondita f. sp. tritici / wheat / leaf disc preventative (brown rust); assay type: in vivo; conditions: foliar, 200 ppm in the applied formulation, wheat leaf segments, preventative, assessed 7 to 9 days after application, read-out: disease control compared to untreated control leaf disks
Procedure, shortened: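 Wheat cv. Kanzler leaf segments on agar sprayed with formulated compound in water, inoculated with rust spores 1 day later. Incubated at 19° C, 75% rh, 12 h light/12 h dark; percent disease control versus untreated scored 7 to 9 days after application; tested at 200 ppm.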

Phakopsora pachyrhizi = Phakopsora pachyrhizi / soybean / leaf disc preventative (Asian soybean rust); assay type: in vivo; conditions: foliar, 200 ppm in the applied formulation, soybean leaf disks, assessed 12 to 14 days after application, read-out: disease control compared to untreated control leaf disks
Procedure, shortened: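 Soybean leaf discs on water agar were sprayed with formulated compound diluted in water, then inoculated one day later with spore suspension on the lower leaf surface. Held 24-36 h dark at 20° C., 75% RH, then 12 h light/day; percent disease control versus untreated scored 12 to 14 days after application.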

[3] = test system: Glomerella lacenarium (Colletotrichum lacenarium); assay: Glomerella lacenarium (Colletotrichum lacenarium) liquid culture / cucumber / preventative (anthracnose); assay type: cell-based; conditions: 20 ppm in the applied formulation, liquid culture in PDB, 24° C., 3 to 4 days after application, read-out: disease control (inhibition of growth, photometric) compared to untreated control
Procedure, shortened: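 Cryostored conidia in potato dextrose broth added to DMSO compound solution in microtiter plates, incubated at 24° C. Growth inhibition read photometrically 3 to 4 days after application, as percent control versus untreated check; compounds tested at 20 ppm.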

CCONC(=O)C(=O)NCc1ccc(-c2noc(C(F)(F)F)n2)cc1 [Compound 4.55, N′-ethoxy-N-[[4-[5-(trifluoromethyl)-1,2,4-oxadiazol-3-yl]phenyl]methyl] oxamide]
≥ 80%: pest or weed control at 200 ppm [1] | pest or weed control at 200 ppm [2] | pest or weed control at 200 ppm (Phakopsora pachyrhizi) | inhibition at 20 ppm [3]

CC(C)(C)NC(=O)C(=O)NCc1ccc(-c2noc(C(F)(F)F)n2)cc1 [Compound 4.56, N′-tert-butyl-N-[[4-[5-(trifluoromethyl)-1,2,4-oxadiazol-3-yl]phenyl]methyl] oxamide]
≥ 80%: pest or weed control at 200 ppm [1] | pest or weed control at 200 ppm [2] | pest or weed control at 200 ppm (Phakopsora pachyrhizi) | inhibition at 20 ppm [3]

CONC(=O)C(=O)NCc1ccc(-c2noc(C(F)(F)F)n2)cc1 [Compound 4.58, N′-methoxy-N-[[4-[5-(trifluoromethyl)-1,2,4-oxadiazol-3-yl]phenyl]methyl] oxamide]
≥ 80%: pest or weed control at 200 ppm [1] | pest or weed control at 200 ppm [2] | pest or weed control at 200 ppm (Phakopsora pachyrhizi) | inhibition at 20 ppm [3]

O=C(NCc1ccc(-c2noc(C(F)(F)F)n2)cc1)C(=O)N1CCOCC1 [Compound 4.59, 2-morpholino-2-oxo-N-[[4-[5-(trifluoromethyl)-1,2,4-oxadiazol-3-yl]phenyl]methyl] acetamide]
≥ 80%: pest or weed control at 200 ppm [1] | pest or weed control at 200 ppm [2] | pest or weed control at 200 ppm (Phakopsora pachyrhizi) | inhibition at 20 ppm [3]

CON(C)C(=O)C(=O)N(Cc1ccc(-c2noc(C(F)(F)F)n2)cc1)OC [Compound 4.65, N,N′-dimethoxy-N-methyl-N′-[[4-[5-(trifluoromethyl)-1,2,4-oxadiazol-3-yl]phenyl]methyl] oxamide]
≥ 80%: pest or weed control at 200 ppm [1] | pest or weed control at 200 ppm [2] | pest or weed control at 200 ppm (Phakopsora pachyrhizi) | inhibition at 20 ppm [3]

CCN(CC)C(=O)C(=O)N(Cc1ccc(-c2noc(C(F)(F)F)n2)cc1)OC [Compound 4.69, N,N-diethyl-N′-methoxy-N′-[[4-[5-(trifluoromethyl)-1,2,4-oxadiazol-3-yl]phenyl]methyl] oxamide]
≥ 80%: pest or weed control at 200 ppm [1] | pest or weed control at 200 ppm [2] | pest or weed control at 200 ppm (Phakopsora pachyrhizi) | inhibition at 20 ppm [3]

CCN(C)C(=O)C(=O)N(Cc1ccc(-c2noc(C(F)(F)F)n2)cc1)OC [Compound 4.73, N-ethyl-N′-methoxy-N-methyl-N′-[[4-[5-(trifluoromethyl)-1,2,4-oxadiazol-3-yl]phenyl]methyl] oxamide]
≥ 80%: pest or weed control at 200 ppm [1] | pest or weed control at 200 ppm [2] | pest or weed control at 200 ppm (Phakopsora pachyrhizi) | inhibition at 20 ppm [3]

C=CCNC(=O)C(=O)N(Cc1ccc(-c2noc(C(F)(F)F)n2)cc1)OC [Compound 4.76, N-allyl-N′-methoxy-N′-[[4-[5-(trifluoromethyl)-1,2,4-oxadiazol-3-yl]phenyl]methyl] oxamide]
≥ 80%: pest or weed control at 200 ppm [1] | pest or weed control at 200 ppm [2] | pest or weed control at 200 ppm (Phakopsora pachyrhizi) | inhibition at 20 ppm [3]

CCON(Cc1ccc(-c2noc(C(F)(F)F)n2)cc1)C(=O)C(N)=O [Compound 4.86, N′-ethoxy-N′-[[4-[5-(trifluoromethyl)-1,2,4-oxadiazol-3-yl]phenyl]methyl] oxarnide]
≥ 80%: pest or weed control at 200 ppm [1] | pest or weed control at 200 ppm [2] | pest or weed control at 200 ppm (Phakopsora pachyrhizi) | inhibition at 20 ppm [3]

CCCN(Cc1ccc(-c2noc(C(F)(F)F)n2)cc1)C(=O)C(N)=O [Compound 4.88, N′-propyl-N′-[[4-[5-(trifluoromethyl)-1,2,4-oxadiazol-3-yl]phenyl]methyl] oxamide]
≥ 80%: pest or weed control at 200 ppm [1] | pest or weed control at 200 ppm [2] | pest or weed control at 200 ppm (Phakopsora pachyrhizi) | inhibition at 20 ppm [3]

CC(C)N(Cc1ccc(-c2noc(C(F)(F)F)n2)cc1)C(=O)C(N)=O [Compound 4.89, N′-isopropyl-N′-[[4-[5-(trifluoromethyl)-1,2,4-oxadiazol-3-yl]phenyl]methyl] oxamide]
≥ 80%: pest or weed control at 200 ppm [1] | pest or weed control at 200 ppm [2] | pest or weed control at 200 ppm (Phakopsora pachyrhizi) | inhibition at 20 ppm [3]

NC(=O)C(=O)N(Cc1ccc(-c2noc(C(F)(F)F)n2)cc1)C1COC1 [Compound 4.90, N′-(oxetan-3-yl)-N′-[[4-[5-(trifluoromethyl)-1,2,4-oxadiazol-3-yl]phenyl]methyl] oxamide]
≥ 80%: pest or weed control at 200 ppm [1] | pest or weed control at 200 ppm [2] | pest or weed control at 200 ppm (Phakopsora pachyrhizi) | inhibition at 20 ppm [3]

NC(=O)C(=O)N(O)Cc1ccc(-c2noc(C(F)(F)F)n2)cc1 [Compound 4.91, N′-hydroxy-N′-[[4-[5-(trifluoromethyl)-1,2,4-oxadiazol-3-yl]phenyl]methyl] oxamide]
≥ 80%: pest or weed control at 200 ppm [1] | pest or weed control at 200 ppm [2] | pest or weed control at 200 ppm (Phakopsora pachyrhizi) | inhibition at 20 ppm [3]

CN(C)C(=O)C(=O)NCc1ccc(-c2noc(C(F)(F)F)n2)cc1F [Compound 4.92, N-[[2-fluoro-4-[5-(trifluoromethyl)-1,2,4-oxadiazol-3-yl]phenyl]methyl]-N',N'-dimethyl-oxamide]
≥ 80%: pest or weed control at 200 ppm [1] | pest or weed control at 200 ppm [2] | pest or weed control at 200 ppm (Phakopsora pachyrhizi) | inhibition at 20 ppm [3]

CN(C)C(=O)C(=O)NCc1ccc(-c2noc(C(F)(F)F)n2)c(F)c1 [Compound 4.93, N-[[3-fluoro-4-[5-(trifluoromethyl)-1,2,4-oxadiazol-3-yl]phenyl]methyl]-N',N'-dimethyl-oxamide]
≥ 80%: pest or weed control at 200 ppm [1] | pest or weed control at 200 ppm [2] | pest or weed control at 200 ppm (Phakopsora pachyrhizi) | inhibition at 20 ppm [3]

CN(C)C(=O)C(=O)NCc1ccc(-c2noc(C(F)(F)F)n2)c(F)c1F [Compound 4.94, N-[[2,3-difluoro-4-[5-(trifluoromethyl)-1,2,4-oxadiazol-3-yl]phenyl]methyl]-N',N'-dimethyl-oxamide]
≥ 80%: pest or weed control at 200 ppm [1] | pest or weed control at 200 ppm [2] | pest or weed control at 200 ppm (Phakopsora pachyrhizi) | inhibition at 20 ppm [3]

CON(Cc1ccc(-c2noc(C(F)(F)F)n2)cc1F)C(=O)C(=O)N(C)C [Compound 4.95, N′-[[2-fluoro-4-[5-(trifluoromethyl)-1,2,4-oxadiazol-3-yl]phenyl]methyl]-N′-methoxy-N,N-dimethyl-oxamide]
≥ 80%: pest or weed control at 200 ppm [1] | pest or weed control at 200 ppm [2] | pest or weed control at 200 ppm (Phakopsora pachyrhizi) | inhibition at 20 ppm [3]

CN(C)C(=O)C(=O)NCc1ccc(-c2noc(C(F)(F)F)n2)cc1Cl [Compound 4.96, N-[[2-chloro-4-[5-(trifluoromethyl)-1,2,4-oxadiazol-3-yl]phenyl]methyl]-N′,N′-dimethyl-oxamide]
≥ 80%: pest or weed control at 200 ppm [1] | pest or weed control at 200 ppm [2] | pest or weed control at 200 ppm (Phakopsora pachyrhizi) | inhibition at 20 ppm [3]

Cc1cc(-c2noc(C(F)(F)F)n2)ccc1CNC(=O)C(=O)N(C)C [Compound 4.97, N′,N′-dimethyl-N-[[2-methyl-4-[5-(trifluoromethyl)-1,2,4-oxadiazol-3-yl]phenyl]methyl] oxamide]
≥ 80%: pest or weed control at 200 ppm [1] | pest or weed control at 200 ppm [2] | pest or weed control at 200 ppm (Phakopsora pachyrhizi) | inhibition at 20 ppm [3]

CN(C)C(=O)C(=O)NCc1c(F)cc(-c2noc(C(F)(F)F)n2)cc1F [Compound 4.98, N-[[2,6-difluoro-4-[5-(trifluoromethyl)-1,2,4-oxadiazol-3-yl]phenyl]methyl]-N′,N′-dimethyl-oxamide]
≥ 80%: pest or weed control at 200 ppm [1] | pest or weed control at 200 ppm [2] | pest or weed control at 200 ppm (Phakopsora pachyrhizi) | inhibition at 20 ppm [3]

CCN(Cc1ccc(-c2noc(C(F)(F)F)n2)cc1)C(=O)C(=O)NC [Compound 4.101, N′-ethyl-N-methyl-N′-[[4-[5-(trifluoromethyl)-1,2,4-oxadiazol-3-yl]phenyl]methyl] oxamide]
≥ 80%: pest or weed control at 200 ppm [1] | pest or weed control at 200 ppm [2] | pest or weed control at 200 ppm (Phakopsora pachyrhizi) | inhibition at 20 ppm [3]

CON(C)C(=O)C(=O)N(C)Cc1ccc(-c2noc(C(F)(F)F)n2)cc1 [Compound 4.104, N′-methoxy-N,N′-dimethyl-N-[[4-[5-- (trifluoromethyl)-1,2,4-oxadiazol-3-yl]phenyl]methyl] oxamide]
≥ 80%: pest or weed control at 200 ppm [1] | pest or weed control at 200 ppm [2] | pest or weed control at 200 ppm (Phakopsora pachyrhizi) | inhibition at 20 ppm [3]

CON(C)C(=O)C(=O)N(Cc1ccc(-c2noc(C(F)(F)F)n2)cc1)C1CC1 [Compound 4.105, N′-cyclopropyl-N-methoxy-N-methyl-N′-[[4-[5-(trifluoromethyl)-1,2,4-oxadiazol-3-yl]phenyl]methyl] oxamide]
≥ 80%: pest or weed control at 200 ppm [1] | pest or weed control at 200 ppm [2] | pest or weed control at 200 ppm (Phakopsora pachyrhizi) | inhibition at 20 ppm [3]
